Earlier results on two substances are cited in paper PMC10443619 (ACS chemical biology, 2023).

The subject of series [1] is tau. The conditions noted are these: compared with YM-01.
The subject of series [2] is tau.
Assay in series [3]: not given
This is another data set of the same source.

The subject of series [4] is tau. The conditions noted are these: compared with MKT-077.

In the case of JG-98, the “half-life (t1/2)” value was 37 min. Besides, in series [1], the “potency to prevent cellular tau accumulation” value is reported as “greater potency to prevent cellular tau accumulation than YM-01”. Moreover, the “total tau in organotypic brain slices” value in series [2] (rTg4510 mice) is reported as “reduced total tau”.
YM-01: the blood-brain permeability result in series [3] was “lacked detectable blood-brain permeability”. In series [4], the “potency to prevent tau accumulation in HeLaC3 cells” value is on record as “enhanced the potency to prevent tau accumulation”. Also, the “pathogenic tau in ex vivo brain slices” value in series [2] (transgenic rTg4510 mice) was “reduced pathogenic tau”.
